What follows are compounds tested on pERK in NCI-H358 cells (assay: Cell-based pERK HTRF assay (pERK inhibition in H358 cells)). Settings: 30 min incubation.
Outline: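 NCI-H358 cells were seeded at 4×10^4 cells/well in RPMI/10% FBS, then treated next day for 30 min at 0.25% DMSO (9-point, 3-fold series from 75 μM). Lysates were read by HTRF (d2/Eu cryptate antibody pair, 615 nm emission) after 4–24 h at room temperature to give pERK IC50.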
With `C=CC(=O)N1CC[C@@H](N(C)c2nc(OC[C@@H]3CC4(CC4)CN3C)nc3c(F)c(-c4ccc(F)c5sc(N)c(C#N)c45)c(C(F)(F)F)cc23)[C@@H]1C` [Compound 112] the IC50 was 100 to 1000 nM.

Same assay, conditions: Homo sapiens, NCI-H358, 0.5 h, 30 min incubation
`C=CC(=O)N1CC[C@@H](N(C)c2nc(OC[C@@]34CCCN3C[C@H](F)C4)nc3c(F)c(-c4ccc(F)c5sc(N)c(C#N)c45)c(Cl)cc23)[C@H]1CC` [Compound 19] gave an IC50 of less than 100 nM.
`C=CC(=O)N1CC[C@@H](N(CC)c2nc(OC[C@@]34CCCN3C[C@H](F)C4)nc3c(F)c(-c4ccc(F)c5sc(N)c(C#N)c45)c(Cl)cc23)[C@H]1CC` [Compound 20] was tested, and the IC50 was less than 100 nM.
Compound `C=CC(=O)N1CC[C@@H](N(C)c2nc(OC[C@@]34CCCN3C[C@H](F)C4)nc3cc(-c4ccc(F)c5sc(N)c(C#N)c45)c(F)cc23)[C@@H]1CC` [Compound 22] has an IC50 of less than 100 nM.
`C=CC(=O)N1CC[C@@H](N(C)c2nc(OC[C@@]34CCCN3C[C@H](F)C4)nc3c(F)c(-c4ccc(F)c5sc(N)c(C#N)c45)ccc23)[C@@H]1CC` [Compound 23] showed an IC50 of less than 100 nM.
`C=CC(=O)N1CC[C@@H](N(C)c2nc(OC[C@@]34CCCN3C[C@H](F)C4)nc3cc(-c4ccc(F)c5sc(N)c(C#N)c45)c(C#N)cc23)[C@@H]1CC` [Compound 24] gave an IC50 of less than 100 nM.
Work on `C=CC(=O)N1CC[C@@H](N(CC)c2nc(OC[C@@]34CCCN3C[C@H](F)C4)nc3cc(-c4ccc(F)c5sc(N)c(C#N)c45)c(C#N)cc23)[C@H]1C` [Compound 25] yielded an IC50 of less than 100 nM.
With `C=CC(=O)N1CC[C@@H](N(C)c2nc(OC[C@@]34CCCN3C[C@H](F)C4)nc3cc(-c4ccc(F)c5sc(N)c(C#N)c45)c(C#N)cc23)[C@@H]1C` [Compound 27] the IC50 was less than 100 nM.
Work on `C=CC(=O)N1CC[C@@H](N(C)c2nc(OC[C@@]34CCCN3C[C@H](F)C4)nc3cc(-c4ccc(F)c5sc(N)c(C#N)c45)c(F)cc23)[C@H]1CC` [Compound 29] yielded an IC50 of less than 100 nM.
In the case of `C=CC(=O)N1CC[C@@H](N(C)c2nc(OC[C@@H]3CCCN3CC)nc3c(F)c(-c4ccc(F)c5sc(N)c(C#N)c45)c(C(F)(F)F)cc23)[C@@H]1C` [Compound 30], the IC50 is reported as less than 100 nM.
`C=CC(=O)N1CC[C@@H](N(C)c2nc(OC[C@@]34CCCN3C[C@H](F)C4)nc3cc(-c4ccc(F)c5sc(N)c(C#N)c45)c(F)cc23)[C@@H]1C` [Compound 31] was tested, and the IC50 was less than 100 nM.
`C=CC(=O)N1CC[C@@H](N(C)c2nc(OC[C@@H]3C[C@@H](F)CN3C)nc3c(F)c(-c4ccc(F)c5sc(N)c(C#N)c45)c(C(F)(F)F)cc23)[C@@H]1C` [Compound 32] was tested, and the IC50 was less than 100 nM.
`C=CC(=O)N1CC[C@@H](N(C)c2nc(OC[C@@H]3C[C@@H](OC)CN3C)nc3c(F)c(-c4ccc(F)c5sc(N)c(C#N)c45)c(C(F)(F)F)cc23)[C@@H]1C` [Compound 33] showed an IC50 of less than 100 nM.
With `C=CC(=O)N1C2CCC1CN(c1nc(OC[C@@]34CCCN3C[C@H](F)C4)nc3c(F)c(-c4ccc(F)c5sc(N)c(C#N)c45)c(C(F)(F)F)cc13)C2` [Compound 34] the IC50 was less than 100 nM.
Work on `C=CC(=O)N1C2CC1CN(c1nc(OC[C@@]34CCCN3C[C@H](F)C4)nc3c(F)c(-c4ccc(F)c5sc(N)c(C#N)c45)c(C(F)(F)F)cc13)C2` [Compound 35] yielded an IC50 of less than 100 nM.
`C=CC(=O)N1C[C@H]2CC[C@@H]1CN2c1nc(OC[C@@]23CCCN2C[C@H](F)C3)nc2c(F)c(-c3ccc(F)c4sc(N)c(C#N)c34)c(C(F)(F)F)cc12` [Compound 36] gave an IC50 of 100 to 1000 nM.
`C=CC(=O)N1CC[C@@H](N(C)c2nc(OC[C@@H]3C[C@@H](OC)CN3CC)nc3c(F)c(-c4ccc(F)c5sc(N)c(C#N)c45)c(C(F)(F)F)cc23)[C@@H]1C` [Compound 101] was tested, and the IC50 was less than 100 nM.

Each compound was assayed against T1, GppNHp-loaded KRAS4b (amino acids 1-169) G12C/C118S protein (Homo sapiens, UniProt P01116, C118S/G12C) (assay: Covalent cysteine 12 modification by MALDI-TOF MS, GppNHp-loaded KRAS G12C). Settings: 15 minutes reaction time point.
T1 construct: KRAS4b (amino acids 1-169) G12C/C118S protein; made in house
Type: binding
Outline: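 With several adducts, each species' height is expressed as a fraction of all observed protein peaks, scored on linear-mode spectra. Reactions run at pH 7.3 (HEPES, 150 mM NaCl, 1 mM MgCl2), using 1 μM protein and a 1:2.5 protein:compound ratio, and are sampled after 15 minutes in the dark.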
`C=CC(=O)N1CC[C@@H](N(C)c2nc(OC[C@@]34CCCN3C[C@H](F)C4)nc3c(F)c(-c4ccc(F)c5sc(N)c(C#N)c45)c(Cl)cc23)[C@H]1CC` [Compound 19] was tested, and the “GppNHp-KRAS G12C percent of modification” value was “C (10%≤percent of modification <50%)”.
For `C=CC(=O)N1CC[C@@H](N(CC)c2nc(OC[C@@]34CCCN3C[C@H](F)C4)nc3c(F)c(-c4ccc(F)c5sc(N)c(C#N)c45)c(Cl)cc23)[C@H]1CC` [Compound 20], the “GppNHp-KRAS G12C percent of modification” value was “C (10%≤percent of modification <50%)”.
With `C=CC(=O)N1CC[C@@H](N(C)c2nc(OC[C@@]34CCCN3C[C@H](F)C4)nc3cc(-c4ccc(F)c5sc(N)c(C#N)c45)c(F)cc23)[C@@H]1CC` [Compound 22] the “GppNHp-KRAS G12C percent of modification” value was “D (percent of modification <10%)”.
`C=CC(=O)N1CC[C@@H](N(C)c2nc(OC[C@@]34CCCN3C[C@H](F)C4)nc3c(F)c(-c4ccc(F)c5sc(N)c(C#N)c45)ccc23)[C@@H]1CC` [Compound 23] was tested, and the “GppNHp-KRAS G12C percent of modification” value was “C (10%≤percent of modification <50%)”.
`C=CC(=O)N1CC[C@@H](N(C)c2nc(OC[C@@]34CCCN3C[C@H](F)C4)nc3cc(-c4ccc(F)c5sc(N)c(C#N)c45)c(C#N)cc23)[C@@H]1CC` [Compound 24] was tested, and the “GppNHp-KRAS G12C percent of modification” value was “C (10%≤percent of modification <50%)”.
With `C=CC(=O)N1CC[C@@H](N(CC)c2nc(OC[C@@]34CCCN3C[C@H](F)C4)nc3cc(-c4ccc(F)c5sc(N)c(C#N)c45)c(C#N)cc23)[C@H]1C` [Compound 25] the “GppNHp-KRAS G12C percent of modification” value was “A (percent of modification ≥70%)”.
`C=CC(=O)N1CC[C@@H](N(C)c2nc(OC[C@@]34CCCN3C[C@H](F)C4)nc3cc(-c4ccc(F)c5sc(N)c(C#N)c45)c(C#N)cc23)[C@@H]1C` [Compound 27] was tested, and the “GppNHp-KRAS G12C percent of modification” value was “A (percent of modification ≥70%)”.
`C=CC(=O)N1CC[C@@H](N(C)c2nc(OC[C@@]34CCCN3C[C@H](F)C4)nc3cc(-c4ccc(F)c5sc(N)c(C#N)c45)c(F)cc23)[C@H]1CC` [Compound 29] was tested, and the “GppNHp-KRAS G12C percent of modification” value was “A (percent of modification ≥70%)”.
`C=CC(=O)N1CC[C@@H](N(C)c2nc(OC[C@@H]3CCCN3CC)nc3c(F)c(-c4ccc(F)c5sc(N)c(C#N)c45)c(C(F)(F)F)cc23)[C@@H]1C` [Compound 30] was tested, and the “GppNHp-KRAS G12C percent of modification” value was “A (percent of modification ≥70%)”.
With `C=CC(=O)N1CC[C@@H](N(C)c2nc(OC[C@@]34CCCN3C[C@H](F)C4)nc3cc(-c4ccc(F)c5sc(N)c(C#N)c45)c(F)cc23)[C@@H]1C` [Compound 31] the “GppNHp-KRAS G12C percent of modification” value was “A (percent of modification ≥70%)”.
For `C=CC(=O)N1CC[C@@H](N(C)c2nc(OC[C@@H]3C[C@@H](F)CN3C)nc3c(F)c(-c4ccc(F)c5sc(N)c(C#N)c45)c(C(F)(F)F)cc23)[C@@H]1C` [Compound 32], the “GppNHp-KRAS G12C percent of modification” value was “A (percent of modification ≥70%)”.
`C=CC(=O)N1CC[C@@H](N(C)c2nc(OC[C@@H]3C[C@@H](OC)CN3C)nc3c(F)c(-c4ccc(F)c5sc(N)c(C#N)c45)c(C(F)(F)F)cc23)[C@@H]1C` [Compound 33] was tested, and the “GppNHp-KRAS G12C percent of modification” value was “A (percent of modification ≥70%)”.
For `C=CC(=O)N1C2CCC1CN(c1nc(OC[C@@]34CCCN3C[C@H](F)C4)nc3c(F)c(-c4ccc(F)c5sc(N)c(C#N)c45)c(C(F)(F)F)cc13)C2` [Compound 34], the “GppNHp-KRAS G12C percent of modification” value was “C (10%≤percent of modification <50%)”.
For `C=CC(=O)N1C2CC1CN(c1nc(OC[C@@]34CCCN3C[C@H](F)C4)nc3c(F)c(-c4ccc(F)c5sc(N)c(C#N)c45)c(C(F)(F)F)cc13)C2` [Compound 35], the “GppNHp-KRAS G12C percent of modification” value was “C (10%≤percent of modification <50%)”.
With `C=CC(=O)N1C[C@H]2CC[C@@H]1CN2c1nc(OC[C@@]23CCCN2C[C@H](F)C3)nc2c(F)c(-c3ccc(F)c4sc(N)c(C#N)c34)c(C(F)(F)F)cc12` [Compound 36] the “GppNHp-KRAS G12C percent of modification” value was “D (percent of modification <10%)”.
`C=CC(=O)N1CC[C@@H](N(C)c2nc(OC[C@@H]3C[C@@H](OC)CN3CC)nc3c(F)c(-c4ccc(F)c5sc(N)c(C#N)c45)c(C(F)(F)F)cc23)[C@@H]1C` [Compound 101] was tested, and the “GppNHp-KRAS G12C percent of modification” value was “A (percent of modification ≥70%)”.
In the case of `C=CC(=O)N1CC[C@@H](N(C)c2nc(OC[C@@H]3CC4(CC4)CN3C)nc3c(F)c(-c4ccc(F)c5sc(N)c(C#N)c45)c(C(F)(F)F)cc23)[C@@H]1C` [Compound 112], the “GppNHp-KRAS G12C percent of modification” value is reported as “D (percent of modification <10%)”.
